For experiment [1], the system named is E. coli K88. The experiment in a line: Antimicrobial effect of C6, C8 and C10 on E. coli K88 in acidified feed suspension (gastric simulation). The format is cell-based. To be noted: 20% feed suspension pH 4.0. Here is the method: In this example the anti-microbial activity of C6 and/or C8 and/or C10 MCFA against E. coli K88 was evaluated. The preparation of the test solution was as follows. to 1 kg feed (composition Table 6) an exactly determined quantity of E. coli K 88 was added. Subsequently, a suspension of 20% feed and 80% physiologic solution (0,85% saline) was created. To simulate the 20%-suspension in a gastric environment, a pH of 4.0 with 0.1 N HCl was established.
The acidified suspension was distributed in samples of 100 ml. Test substances were added in different concentrations as mentioned in table 7.
A microbial count at t=0 was executed. Samples were incubated during 3 h at 37° C. Samples were removed after 3 h and pH and microbial count were determined. The E. coli strains were counted on a Coli ID medium (Bio Mérieux, 42017).
The planned observations were: • a. Microbial count of control sample (blank) on t=0 • b. Microbial count of control sample (blank) and treatments on t=3 h. Table 8 depicts the calculated results proving the effectiveness of the anti-microbial effectiveness in the stomach of the different MCFA

For experiment [2], the system named is Campylobacter jejuni VC 5, VC 6 and VC 7 strains. The experiment in a line: Effect of MCFA on growth and survival of Campylobacter sp. isolated from poultry caecum. The format is cell-based. To be noted: medium pH 5.0; for relative antimicrobial effect on the tested Campylobacter strains: comparison between MCFA; for antimicrobial activity against Campylobacter strains (CFU/ml, FIGS. 1-9): micro-aerobic, tested concentrations, 0 and 180 minutes. Here is the method: In this example, the MIC values of different MCFA against Campylobacter sp. isolated from poultry caecum were determined.
Three tenfold dilutions of a 10% suspension of three types of MCFA's (C6, C8 and C10) were prepared in distilled water. To obtain the desired concentrations, 1.5, 0.75 and 0.36 ml of these dilutions were pipetted in petri dishes and carefully mixed with 15 ml molten growth medium. A suitable fermentation medium was used with a pH of 5.0.
Isolated Campylobacter strains were grown in suitable fermentation medium and incubated at 37° C. under micro-aerobic conditions by evacuating 80% of the normal atmosphere and introducing a gas mixture of 8% CO2, 8% H2 and 84% N2 into the jar. Inocula were prepared by diluting the cultures in buffered saline to a density of 0.5 on the McFarland turbidity scale and diluted 40-fold before inoculating. Plates were seeded with inoculum. Control plates of media without the product were inoculated at the end of the procedure. All plates were incubated at 37° C. under appropriate atmosphere. Readings were performed after 48 h. Campylobacter was counted after incubation.
These figures represent the number of colony forming units (CFU)/ml of Campylobacter jejuni VC 5 strain (FIGS. 1, 4, 7), Campylobacter jejuni VC 6 strain (FIGS. 2, 5, 8), and Campylobacter jejuni VC 7 strain (FIGS. 3, 6, 9) at various concentrations of MCFA and at two different time points (0 and 180 minutes).

The mark [3] stands for this setting: 0.06% test substance, T = 3 h at 37° C.
[4] abbreviates: 0.125% test substance, T = 3 h at 37° C.
Where [5] appears, read: 0.250% test substance, T = 3 h at 37° C.
[6] abbreviates: 0.500% test substance, T = 3 h at 37° C.

For `CCCCCCCC(=O)O` [C8, caprylic acid], the Microbial count in experiment [1] (0.06% test substance, T = 0 h) was 5.649 Log (CFU/g); in experiment [1] (setting [3]) it was “Total inhibition”; in experiment [1] (0.125% test substance, T = 0 h), 5.415 Log (CFU/g); in experiment [1] (setting [4]), “Total inhibition”; in experiment [1] (0.250% test substance, T = 0 h), “Total inhibition”; in experiment [1] (setting [5]) it was “Total inhibition”. In addition, the Microbial count result is “Total inhibition” in experiment [1] (0.500% test substance, T = 0 h) and “Total inhibition” in experiment [1] (setting [6]). In addition, the “relative antimicrobial effect on the tested Campylobacter strains” value in experiment [2] was “stronger antimicrobial effect compared to C6”. Further, the “antimicrobial activity against Campylobacter strains (CFU/ml, FIGS. 1-9)” value (“antimicrobial activity” for short) in experiment [2] was “show antimicrobial activities”.

Turning to `CCCCCCCCCC(=O)O` [C10, capric acid], the Microbial count was 6.964 Log (CFU/g) in experiment [1] (0.06% test substance, T = 0 h); 6.854 Log (CFU/g) in experiment [1] (setting [3]); 6.927 Log (CFU/g) in experiment [1] (0.125% test substance, T = 0 h); 6.707 Log (CFU/g) in experiment [1] (setting [4]); 6.966 Log (CFU/g) in experiment [1] (0.250% test substance, T = 0 h); 4.708 Log (CFU/g) in experiment [1] (setting [5]). Moreover, the Microbial count was 6.816 Log (CFU/g) in experiment [1] (0.500% test substance, T = 0 h) and “Total inhibition” in experiment [1] (setting [6]). For the same molecule, the “relative antimicrobial effect on the tested Campylobacter strains” value in experiment [2] is reported as “stronger antimicrobial effect compared to C8”. Moreover, the “antimicrobial activity” value in experiment [2] is reported as “show antimicrobial activities”.

Consider `CCCCCC(=O)O` [C6, caproic acid], for which the Microbial count is listed as 5.708 Log (CFU/g) in experiment [1] (0.06% test substance, T = 0 h); 4.160 Log (CFU/g) in experiment [1] (setting [3]); 5.700 Log (CFU/g) in experiment [1] (0.125% test substance, T = 0 h); “Total inhibition” in experiment [1] (setting [4]); 4.920 Log (CFU/g) in experiment [1] (0.250% test substance, T = 0 h); “Total inhibition” in experiment [1] (setting [5]). In addition, the Microbial count result in experiment [1] (0.500% test substance, T = 0 h) was “Total inhibition”; in experiment [1] (setting [6]) it was “Total inhibition”. Besides, in experiment [2], the “antimicrobial activity” value is “show antimicrobial activities”.

The values above are taken from patent publication US8962683B2, “Medium chain fatty acids applicable as anti-microbial agents” (Nutrition Sciences NV, priority 2004, dated 2015).
